How the values were obtained:
IGF 3P = biological target: T1, IGF 3P (Homo sapiens, UniProt P08069); assay: IGF1R kinase assay (LCCA), IGF 3P; format: biochemical; settings: IGF1R kinase LCCA assay
T1 construct: human IGF1R kinase domain residues M954-C1367; made in house; host or cells: baculovirus expression (insect cells)
Protocol: (§1) Kinase activity and compound inhibition are investigated using one or more of the three assay formats described below. The ATP concentrations for each assay are selected to be close to the Michaelis-Menten constant (KM) for each individual kinase. Dose-response experiments are performed at 10 different inhibitor concentrations in a 384-well plate format. […] Y=Min+(Max−Min)/(1+(X/IC50)^H) Equation (2)
(§2) IGF1R kinase biochemical activity was assessed using a Luciferase-Coupled Chemiluminescent Kinase assay (LCCA) format. Kinase activity was measured as the percent ATP remaining following the kinase reaction. Remaining ATP was detected by luciferase-luciferin-coupled chemiluminescence. Specifically, the reaction was initiated by mixing test compounds, 3 μM ATP, 4 μM poly EY peptide and 4 nM IGF1R (baculovirus expressed human IGF1R kinase domain residues M954-C1367) in a 20 uL assay buffer (20 mM Tris-HCL pH7.5, 10 mM MgCl2, 0.02% Triton X-100, 1 mM DTT, 2 mM MnCl2). The mixture is incubated at ambient temperature for 2 hours after which 20 uL luciferase-luciferin mix is added and the chemiluminescent signal read using a Wallac Victor^2 reader.

[1] = biological target: T2, (Homo sapiens, UniProt P08069); assay: IGF1R kinase assay (LCCA), IGF 0P; format: biochemical; settings: IGF1R kinase LCCA assay
T2 construct: human IGF1R kinase domain residues M954-C1367; made in house; host or cells: baculovirus expression (insect cells)
Protocol: as §1, §2

T1 sequence (P08069 954-1367): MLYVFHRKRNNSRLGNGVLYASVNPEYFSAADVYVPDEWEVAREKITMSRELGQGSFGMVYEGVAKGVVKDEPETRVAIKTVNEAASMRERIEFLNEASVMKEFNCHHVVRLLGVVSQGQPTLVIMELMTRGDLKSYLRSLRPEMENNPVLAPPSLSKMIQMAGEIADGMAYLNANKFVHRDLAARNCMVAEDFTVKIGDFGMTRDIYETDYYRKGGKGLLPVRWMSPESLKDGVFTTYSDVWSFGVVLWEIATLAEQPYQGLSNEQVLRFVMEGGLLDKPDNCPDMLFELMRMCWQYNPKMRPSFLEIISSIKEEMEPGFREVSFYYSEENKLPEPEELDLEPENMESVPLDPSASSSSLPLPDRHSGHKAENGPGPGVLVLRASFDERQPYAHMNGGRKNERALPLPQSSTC
T2 sequence (P08069 954-1367): as above

IC50 (IGF 3P) | IC50 [1] | SMILES
0.5 to 5 µM | 0.5 to 5 µM | Cc1cc(Nc2cc(-c3ccco3)[nH]n2)nc(NCc2cc(-c3ccccc3)no2)n1 [Example 246]
0.5 to 5 µM | > 5 µM | COc1ccc(CNc2ncc(Br)c(Nc3cc(C4CC4)n[nH]3)n2)cc1OC [Example 247]
0.5 to 5 µM | 0.5 to 5 µM | Cc1cc(Nc2cc(C3CC3)[nH]n2)nc(NCc2nc(-c3ccccc3)cs2)n1 [Example 252]
0.5 to 5 µM | > 5 µM | CN(C)CCCNc1ncc(Br)c(Nc2cc(C3CC3)n[nH]2)n1 [Example 254]
0.5 to 5 µM | > 5 µM | Brc1cnc(Nc2ccc(N3CCNCC3)cc2)nc1Nc1cc(C2CC2)n[nH]1 [Example 255]
> 5 µM | > 5 µM | COc1cc(Nc2ncc(Br)c(Nc3cc(C4CC4)n[nH]3)n2)cc(C(F)(F)F)c1 [Example 258]
> 5 µM | 0.5 to 5 µM | Cc1cc(Nc2cc(C3CC3)n[nH]2)nc(Nc2cc(F)cc(F)c2)n1 [Example 259]
> 5 µM | > 5 µM | Brc1cnc(Nc2ccccc2N2CCOCC2)nc1Nc1cc(C2CC2)n[nH]1 [Example 260]
> 5 µM | 0.5 to 5 µM | COc1cc(Nc2nc(C)cc(Nc3cc(C4CC4)[nH]n3)n2)cc(OC)c1 [Example 261]
> 5 µM | 0.5 to 5 µM | FC(F)(F)c1cccc(CNc2ncc(Br)c(Nc3cc(C4CC4)n[nH]3)n2)c1 [Example 263]
> 5 µM | > 5 µM | FC(F)(F)Oc1cccc(Nc2ncc(Br)c(Nc3cc(C4CC4)n[nH]3)n2)c1 [Example 264]
> 5 µM | 0.5 to 5 µM | Brc1cnc(NCc2cnn(-c3ccccc3)n2)nc1Nc1cc(C2CC2)n[nH]1 [Example 266]
> 5 µM | > 5 µM | Cc1cc(Nc2cc(C3CC3)n[nH]2)nc(Nc2ccc(N3CCOCC3)cc2)n1 [Example 268]
> 5 µM | > 5 µM | Brc1cnc(Nc2cccc(OCc3ccccc3)c2)nc1Nc1cc(C2CC2)n[nH]1 [Example 269]
> 5 µM | 0.5 to 5 µM | Cc1cc(C)cc(Nc2nc(C)cc(Nc3cc(C4CC4)n[nH]3)n2)c1 [Example 270]
> 5 µM | > 5 µM | Brc1cnc(NCc2cc(-c3ccccc3)cs2)nc1Nc1cc(C2CC2)n[nH]1 [Example 271]
> 5 µM | > 5 µM | Clc1ccccc1CCNc1ncc(Br)c(Nc2cc(C3CC3)n[nH]2)n1 [Example 272]
> 5 µM | 0.5 to 5 µM | Cc1cc(Nc2cc(C3CC3)n[nH]2)nc(Nc2cc(Cl)cc(Cl)c2)n1 [Example 274]

IC50 (IGF 3P) | IC50 [1] | SMILES
> 5 µM | 0.5 to 5 µM | O=C(Nc1ccccc1)c1nc(Nc2ccccc2Cl)nc(Nc2cc(C3CC3)n[nH]2)c1[N+](=O)[O-] [Example 276]
> 5 µM | > 5 µM | COc1ccc(-c2cc(CNc3ncc(Br)c(Nc4cc(C5CC5)[nH]n4)n3)on2)cc1 [Example 277]
> 5 µM | > 5 µM | O=C(Nc1ccc(N2CCOCC2)cc1)c1nc(Nc2ccccc2Cl)nc(Nc2cc(C3CC3)n[nH]2)c1[N+](=O)[O-] [Example 278]
> 5 µM | > 5 µM | CC(=O)Nc1cnc(Nc2ccccc2Cl)nc1Nc1cc(C2CC2)n[nH]1 [Example 280]
> 5 µM | > 5 µM | Cc1cc(Nc2cc(C)on2)nc(Nc2ccc(N3CCOCC3)cc2)n1 [Example 295]
> 5 µM | > 5 µM | Cc1cc(Nc2ccc3ccccc3c2)nc(Nc2ccc(N3CCOCC3)cc2)n1 [Example 297]
> 5 µM | > 5 µM | Cc1cc(Nc2cc(C3CC3)n[nH]2)nc(Nc2cc(C(F)(F)F)cc(C(F)(F)F)c2)n1 [Example 300]
> 5 µM | > 5 µM | Cc1cc(Nc2cc(C3CC3)n[nH]2)nc(Nc2cc(Br)cc(C(F)(F)F)c2)n1 [Example 301]
> 5 µM | > 5 µM | COc1cc(Nc2nc(C)cc(Nc3cc(C4CC4)n[nH]3)n2)cc(C(F)(F)F)c1 [Example 302]
> 5 µM | > 5 µM | Clc1cc(Cl)cc(Nc2ncc(Br)c(Nc3cc(C4CC4)n[nH]3)n2)c1 [Example 303]
> 5 µM | > 5 µM | FC(F)(F)c1cc(Nc2ncc(Br)c(Nc3cc(C4CC4)n[nH]3)n2)cc(C(F)(F)F)c1 [Example 304]
> 5 µM | > 5 µM | FC(F)(F)c1cc(Br)cc(Nc2ncc(Br)c(Nc3cc(C4CC4)n[nH]3)n2)c1 [Example 305]
> 5 µM | > 5 µM | Cc1cc(Nc2n[nH]cc2C#N)nc(NCc2cc(-c3ccccc3)no2)n1 [Example 306]
> 5 µM | > 5 µM | Cc1cc(Nc2cc(C)on2)nc(NCc2cc(-c3ccccc3)no2)n1 [Example 307]
> 5 µM | > 5 µM | Fc1cc(F)cc(Nc2ncc(Br)c(Nc3cc(C4CC4)n[nH]3)n2)c1 [Example 313]
> 5 µM | > 5 µM | Brc1cnc(Nc2ccncc2)nc1Nc1cc(C2CC2)[nH]n1 [Example 316]
> 5 µM | > 5 µM | Brc1cnc(Nc2ccc(OCc3ccccc3)cc2)nc1Nc1cc(C2CC2)n[nH]1 [Example 320]

Second part, the molecule before the results:

SMILES | IC50 (IGF 3P) | IC50 [1]
c1ccc(CN2CCc3c(nc(NCc4cc(-c5ccccc5)no4)nc3Nc3cc(C4CC4)[nH]n3)C2)cc1 [Example 242] | 0.5 to 5 µM | 0.5 to 5 µM
CN1CCN(c2ncc(Br)c(Nc3cc(C4CC4)[nH]n3)n2)CC1 [Example 249] | 0.5 to 5 µM | > 5 µM
Clc1ccccc1Nc1ncc(Br)c(Nc2n[nH]c3ccccc23)n1 [Example 267] | > 5 µM | > 5 µM
Clc1ccc(-c2cc(CNc3ncc(Br)c(Nc4cc(C5CC5)[nH]n4)n3)on2)cc1 [Example 275] | > 5 µM | 0.5 to 5 µM
O=C(Nc1ncc(Br)c(Nc2cc(C3CC3)[nH]n2)n1)c1ccccc1Cl [Example 279] | > 5 µM | > 5 µM
c1ccc(CN2CCc3c(nc(Nc4ccc(N5CCOCC5)cc4)nc3Nc3cc(C4CC4)[nH]n3)C2)cc1 [Example 281] | > 5 µM | > 5 µM
c1cc(N2CCOCC2)ccc1Nc1nc2c(c(Nc3cc(C4CC4)[nH]n3)n1)CCNC2 [Example 282] | > 5 µM | > 5 µM
c1ccc(-c2cc(CNc3nc4c(c(Nc5cc(C6CC6)[nH]n5)n3)CCNC4)on2)cc1 [Example 283] | > 5 µM | > 5 µM
Nc1nc(C2CC2)nn1-c1nc(Nc2ccc(N3CCOCC3)cc2)ncc1Br [Example 284] | > 5 µM | > 5 µM
Nc1ncnn1-c1nc(Nc2ccc(N3CCOCC3)cc2)ncc1Br [Example 285] | > 5 µM | > 5 µM
Clc1ccccc1Nc1ncc(Br)c(Nc2cc(C3CC3)on2)n1 [Example 286] | > 5 µM | > 5 µM
Nc1nc(Nc2ccc(N3CCOCC3)cc2)ncc1Br [Example 287] | > 5 µM | > 5 µM
FC(F)(F)c1ccc(-c2ncc(CNc3ncc(Br)c(Nc4cc(C5CC5)[nH]n4)n3)s2)cc1 [Example 288] | > 5 µM | > 5 µM
Clc1ccc(-c2ncc(CNc3ncc(Br)c(Nc4cc(C5CC5)[nH]n4)n3)s2)cc1 [Example 289] | > 5 µM | > 5 µM
Clc1cccc(-c2ncc(CNc3ncc(Br)c(Nc4cc(C5CC5)[nH]n4)n3)s2)c1 [Example 290] | > 5 µM | > 5 µM
Nc1cccc(Nc2nc(NCc3cc(-c4ccccc4)no3)ncc2Br)n1 [Example 291] | > 5 µM | > 5 µM
Brc1cnc(NCc2cc(-c3ccccc3)no2)nc1Nc1ccccc1 [Example 292] | > 5 µM | > 5 µM
CCCCNc1cc(C)nc(NCc2cc(-c3ccccc3)no2)n1 [Example 293] | > 5 µM | > 5 µM
CCCCNc1cc(C)nc(Nc2ccc(N3CCOCC3)cc2)n1 [Example 294] | > 5 µM | > 5 µM
Cc1cc(Nc2nc(NCc3cc(-c4ccccc4)no3)ncc2Br)no1 [Example 296] | > 5 µM | > 5 µM
Cc1cc(NCc2ccccc2)nc(NCc2cc(-c3ccccc3)no2)n1 [Example 298] | > 5 µM | > 5 µM
Cc1cc(Nc2ccc3ccccc3c2)nc(NCc2cc(-c3ccccc3)no2)n1 [Example 299] | > 5 µM | > 5 µM
Cc1cc(N2CCN(C)CC2)nc(N2CCN(C)CC2)n1 [Example 308] | > 5 µM | > 5 µM
Cc1cc(Nc2ccccc2)nc(Nc2ccc(CCC(=O)NCCN3CCCC3)cc2)n1 [Example 309] | > 5 µM | > 5 µM
CCN(CC)CCNC(=O)CCc1ccc(Nc2nc(C)cc(Nc3ccccc3)n2)cc1 [Example 310] | > 5 µM | > 5 µM
c1cc(Nc2ccon2)nc(Nc2ccc(N3CCOCC3)cc2)n1 [Example 311] | > 5 µM | > 5 µM
Nc1ncc(Br)c(Nc2cc(C3CC3)[nH]n2)n1 [Example 314] | > 5 µM | > 5 µM
CC(C)(C)OC(=O)N1CCC(CNc2ncc(Br)c(Nc3cc(C4CC4)n[nH]3)n2)CC1 [Example 315] | > 5 µM | > 5 µM
Brc1cnc(Nc2cc(-c3ccccc3)n[nH]2)nc1Nc1cc(-c2ccccc2)n[nH]1 [Example 319] | > 5 µM | > 5 µM
